Assay results from ChEMBL document CHEMBL1201862, “PubChem BioAssay data set” (2004).
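Exposure lasted 48 hours, with cells grown in 96-well plates and compounds tested at five concentrations. Abbreviation: GI50, concentration required for 50% inhibition of growth.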 The source made the active and inactive calls. No stated cut-off is given here; in the data, active = GI50 up to about 1.1 µM and inactive = higher.

Legend:
Test in all cases: NCI tumour cell line growth inhibition, 48 h
SK-MEL-5 = system: SK-MEL-5
A498 = system: A498
SF-539 = system: SF-539
MDA-MB-231 = system: MDA-MB-231
NCI-H23 = system: NCI-H23
SF-268 = system: SF-268
OVCAR-4 = system: OVCAR-4
NCI-H460 = system: NCI-H460
KM12 = system: KM12
UACC-62 = system: UACC-62
SNB-19 = system: SNB-19
MDA-N = system: MDA-N
PC-3 = system: PC-3
HCC 2998 = system: HCC 2998
HCT-116 = system: HCT-116
CAKI-1 = system: CAKI-1
MOLT-4 = system: MOLT-4
SF-295 = system: SF-295
SR = system: SR

Measured: GI50

CC1=C(C(=O)NCCCN(CCO)CCO)CC(C(=O)NCCCN(CCO)CCO)=C(C)N1
inactive: SK-MEL-5 22.2 µM | A498 27.4 µM | SF-539 > 100 µM | MDA-MB-231 40.7 µM | NCI-H23 > 100 µM | SF-268 34.8 µM | OVCAR-4 > 100 µM | NCI-H460 > 100 µM | KM12 85.1 µM | UACC-62 > 100 µM | SNB-19 66.4 µM | MDA-N 86.1 µM | PC-3 59.8 µM | HCC 2998 > 100 µM | HCT-116 > 100 µM | CAKI-1 > 100 µM | MOLT-4 > 100 µM | SF-295 > 100 µM

O=c1[nH]c(=O)n(C2CC(O)C(CO)O2)cc1OCC1CCCCC1 (configuration not stated)
inactive: SK-MEL-5 > 100 µM | MDA-MB-231 > 100 µM | NCI-H23 > 100 µM | SF-268 > 100 µM | OVCAR-4 > 100 µM | NCI-H460 > 100 µM | KM12 > 100 µM | UACC-62 > 100 µM | SNB-19 > 100 µM | MDA-N > 100 µM | PC-3 > 100 µM | HCT-116 > 100 µM | CAKI-1 > 100 µM | SR > 100 µM | MOLT-4 > 100 µM | SF-295 > 100 µM

O=c1[nH]nc(Cc2ccc(Cl)cc2)n1CCO
inactive: SK-MEL-5 > 100 µM | A498 > 100 µM | SF-539 > 100 µM | MDA-MB-231 > 100 µM | NCI-H23 > 100 µM | SF-268 > 100 µM | OVCAR-4 > 100 µM | NCI-H460 > 100 µM | KM12 > 100 µM | UACC-62 > 100 µM | SNB-19 > 100 µM | MDA-N > 100 µM | PC-3 > 100 µM | HCC 2998 > 100 µM | HCT-116 > 100 µM | CAKI-1 > 100 µM | MOLT-4 > 100 µM | SF-295 > 100 µM

CNC1c2ccccc2C(=O)c2cc3c(cc21)OCCOCCOCCOCCO3 (configuration not stated)
inactive: SK-MEL-5 > 100 µM | SF-539 > 100 µM | MDA-MB-231 82.2 µM | SF-268 > 100 µM | OVCAR-4 > 100 µM | NCI-H460 > 100 µM | KM12 > 100 µM | SNB-19 > 100 µM | MDA-N 96.8 µM | PC-3 > 100 µM | HCC 2998 > 100 µM | HCT-116 > 100 µM | SR 28.7 µM | MOLT-4 28.1 µM | SF-295 > 100 µM

COc1cc(O)c(/C=N/N=C(\N)NO)c(OC)c1
inactive: SK-MEL-5 > 10 µM | A498 > 10 µM | SF-539 > 10 µM | MDA-MB-231 > 10 µM | NCI-H23 > 10 µM | SF-268 > 10 µM | OVCAR-4 > 10 µM | NCI-H460 4.08 µM | KM12 8.18 µM | UACC-62 9.71 µM | SNB-19 > 10 µM | MDA-N > 10 µM | PC-3 6.18 µM | HCC 2998 > 10 µM | HCT-116 6.19 µM | CAKI-1 > 10 µM | SF-295 4.92 µM

CC(=O)O[C@H]1CC[C@@]2(C)C(=CC[C@@H]3[C@@H]2CC[C@]2(C)c4nc(N)c(C#N)cc4C[C@@H]32)C1
inactive: SK-MEL-5 12.8 µM | A498 > 67.6 µM | SF-539 13.7 µM | MDA-MB-231 44.2 µM | NCI-H23 35 µM | SF-268 60.5 µM | OVCAR-4 19.9 µM | NCI-H460 19.8 µM | KM12 55.1 µM | UACC-62 40.6 µM | SNB-19 > 100 µM | MDA-N 29 µM | PC-3 42.5 µM | HCC 2998 > 55.3 µM | HCT-116 18.2 µM | CAKI-1 > 100 µM | MOLT-4 11.7 µM | SF-295 35.7 µM

COc1cccc(-n2c(N)c(-c3nc4cc(C(F)(F)F)ccc4s3)c3ccc([N+](=O)[O-])cc3c2=O)c1
inactive: SK-MEL-5 > 100 µM | A498 > 100 µM | MDA-MB-231 > 100 µM | NCI-H23 > 100 µM | SF-268 > 100 µM | OVCAR-4 > 100 µM | NCI-H460 > 100 µM | KM12 > 100 µM | UACC-62 > 100 µM | SNB-19 > 100 µM | MDA-N > 100 µM | PC-3 > 100 µM | HCC 2998 > 100 µM | HCT-116 > 100 µM | CAKI-1 > 100 µM | MOLT-4 > 100 µM | SF-295 > 100 µM

COc1cc(/C=C/C(=O)OC[C@]23O[C@H]2[C@@H](OC2OC(C)C(O)C(O)C2O)C2C=CO[C@@H](OC4OC(CO)C(O)C(O)C4O)C23)ccc1O (some centres not stated)
inactive: SK-MEL-5 > 100 µM | MDA-MB-231 > 100 µM | NCI-H23 > 100 µM | SF-268 > 100 µM | OVCAR-4 > 100 µM | NCI-H460 > 100 µM | KM12 > 100 µM | UACC-62 > 100 µM | SNB-19 > 100 µM | MDA-N > 100 µM | PC-3 > 100 µM | HCC 2998 > 100 µM | HCT-116 > 100 µM | SR > 100 µM | MOLT-4 > 100 µM | SF-295 > 100 µM

CN1C(=O)c2cccc3cc([N+](=O)[O-])cc(c23)C1=O
inactive: SK-MEL-5 > 10 µM | SF-539 > 10 µM | MDA-MB-231 > 10 µM | NCI-H23 9.08 µM | SF-268 9.25 µM | OVCAR-4 > 10 µM | KM12 > 10 µM | UACC-62 > 10 µM | SNB-19 > 10 µM | MDA-N > 10 µM | PC-3 > 10 µM | HCC 2998 > 10 µM | HCT-116 8.61 µM | CAKI-1 > 10 µM | SR > 10 µM | MOLT-4 5.04 µM | SF-295 > 10 µM

CC(=O)OCCn1c(Cc2ccc(C)cc2)nn(C(C)=O)c1=O
inactive: SK-MEL-5 > 100 µM | A498 > 100 µM | SF-539 > 100 µM | MDA-MB-231 > 100 µM | NCI-H23 > 100 µM | SF-268 > 100 µM | OVCAR-4 > 100 µM | NCI-H460 > 100 µM | KM12 > 100 µM | UACC-62 > 100 µM | SNB-19 > 100 µM | MDA-N > 100 µM | PC-3 > 100 µM | HCC 2998 > 100 µM | HCT-116 > 100 µM | CAKI-1 > 100 µM | MOLT-4 > 100 µM | SF-295 > 100 µM

CN1C/C(=C\c2cccs2)C2=NN(C)C(c3cccs3)C2C1 (configuration not stated)
inactive: SK-MEL-5 58.3 µM | A498 46.7 µM | MDA-MB-231 67.9 µM | NCI-H23 > 100 µM | SF-268 > 100 µM | OVCAR-4 35.8 µM | NCI-H460 86.5 µM | KM12 > 100 µM | UACC-62 > 100 µM | SNB-19 > 100 µM | MDA-N > 100 µM | PC-3 19 µM | HCC 2998 42.1 µM | HCT-116 51.4 µM | CAKI-1 > 100 µM | MOLT-4 28.8 µM | SF-295 > 100 µM
